Data published in the supplement of paper PMC10307832.

What was measured:
Assay in all cases: relative viability (nuclei count vs DMSO), 5 days (fraction); higher = more cells survive
[1] = compound: C(C(=O)C(=O)O)Br [Bromopyruvate] + COc1cccc2cc(-c3nc([C@H]4CC[C@H](C(=O)O)CC4)n4ncnc(N)c34)[nH]c12 [OSI-027] (partner 0.5 µM)
In short: (§1)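 Five library-drug doses in √10 steps were combined with a fixed anchor-drug dose, or a single drug was given alone, by pin tool to lung cancer cell lines in 1536-well plates the day after seeding. Nuclei were stained and counted after 5 days. Relative viability is the nuclei count in treated wells over that in vehicle wells, taken as the median of duplicate plates.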

[2] = compound: C(C(=O)C(=O)O)Br [Bromopyruvate] + CS(=O)(=O)N1CCN(Cc2cc3nc(-c4cccc5[nH]ncc45)nc(N4CCOCC4)c3s2)CC1 [Pictilisib] (partner 1 µM)
In short: as §1

[3] = compound: CC(O)(CS(=O)(=O)c1ccc(F)cc1)C(=O)Nc1ccc(C#N)c(C(F)(F)F)c1 [Bicalutamide] + CS(=O)(=O)CCNCc1ccc(-c2ccc3ncnc(Nc4ccc(OCc5cccc(F)c5)c(Cl)c4)c3c2)o1 [Lapatinib] (partner 2 µM)
In short: as §1

[4] = compound: CC(O)(CS(=O)(=O)c1ccc(F)cc1)C(=O)Nc1ccc(C#N)c(C(F)(F)F)c1 [Bicalutamide] + Cc1nc(Nc2ncc(C(=O)Nc3c(C)cccc3Cl)s2)cc(N2CCN(CCO)CC2)n1 [Dasatinib] (partner 0.075 µM)
In short: as §1

Row | Cell Line | relative viability ([1]; first compound 1 µM) | relative viability ([1]; first compound 3.162 µM) | relative viability ([1]; first compound 10 µM) | relative viability ([1]; first compound 31.62 µM) | relative viability ([1]; first compound 100 µM) | relative viability ([2]; first compound 1 µM) | relative viability ([2]; first compound 3.162 µM) | relative viability ([2]; first compound 10 µM) | relative viability ([2]; first compound 31.62 µM) | relative viability ([2]; first compound 100 µM) | relative viability ([3]; first compound 0.08 µM) | relative viability ([3]; first compound 0.253 µM) | relative viability ([3]; first compound 0.8 µM) | relative viability ([3]; first compound 2.53 µM) | relative viability ([4]; first compound 0.08 µM) | relative viability ([4]; first compound 0.253 µM) | relative viability ([4]; first compound 0.8 µM) | relative viability ([4]; first compound 2.53 µM)
1 | NCI-H1975 | 0.742 | 0.912 | 0.687 | 0.731 | 0.718 | 0.301 | 0.318 | 0.323 | 0.326 | 0.3 | 0.851 | 0.854 | 1.12 | 0.785 | 0.396 | 0.376 | 0.462 | 0.334
2 | NCI-H1651 | 0.746 | 0.704 | 0.799 | 0.694 | 0.63 | 0.516 | 0.539 | 0.69 | 0.594 | 0.549 | 0.731 | 0.744 | 1.07 | 0.788 | 0.449 | 0.322 | 0.471 | 0.451
3 | NCI-H460 | 0.588 | 0.82 | 0.91 | 0.661 | 0.728 | 0.483 | 0.315 | 0.419 | 0.358 | 0.349 | 1.08 | 0.881 | – | 0.972 | 0.498 | 0.44 | 0.646 | 0.483
4 | LCLC-97TM1 | 0.53 | 0.482 | 0.735 | 0.522 | 0.51 | – | – | 0.244 | 0.191 | 0.183 | 0.857 | 0.971 | 1.1 | 1 | 0.954 | 0.853 | 0.813 | 0.817
5 | NCI-H838 | 0.428 | 0.37 | 0.422 | 0.386 | 0.393 | 0.463 | 0.446 | 0.495 | 0.493 | 0.448 | 1.09 | 0.881 | 1.38 | 0.734 | 0.319 | 0.303 | 0.392 | 0.272
6 | NCI-H1355 | 0.462 | 0.455 | 0.372 | 0.425 | 0.498 | 0.43 | 0.438 | 0.466 | 0.577 | 0.422 | 1 | 0.902 | 0.974 | 1.03 | 0.753 | 0.639 | 0.797 | 0.729
7 | HOP-62 | 0.799 | 0.743 | 1.02 | 0.803 | 0.891 | 0.71 | 0.889 | – | 0.836 | 0.988 | 1.13 | 0.995 | 1.05 | 1.07 | 0.663 | 0.646 | 0.815 | 0.516
8 | NCI-H2087 | 0.55 | 0.612 | 0.637 | 0.542 | 0.462 | 0.834 | 0.984 | 0.96 | 0.844 | 0.886 | 1.24 | 1.01 | 1.15 | 1 | 0.851 | 0.87 | 1.05 | 0.816
